Results: PMC3914206

Tests used:
panel of 442 kinases [1] = target: T1, panel of 442 kinases (Homo sapiens, UniProt Q8IWQ3); type: binding; design: KINOMEscan: ABL1(F317L)-phosphorylated / KINOMEscan: ABL1(H396P)-nonphosphorylated / KINOMEscan: ABL1(H396P)-phosphorylated / KINOMEscan: ABL1(M351T)-phosphorylated / KINOMEscan: ABL1(T315I)-phosphorylated / KINOMEscan: ABL1-nonphosphorylated / KINOMEscan: ABL1-phosphorylated / KINOMEscan: ACVR2A / KINOMEscan: ACVR2B / KINOMEscan: ADCK3 / KINOMEscan: ADCK4 / KINOMEscan: AKT1 / KINOMEscan: AKT3 / KINOMEscan: ALK / KINOMEscan: ARK5 / KINOMEscan: AURKA / KINOMEscan: AURKC / KINOMEscan: BIKE / KINOMEscan: BMPR1A / KINOMEscan: BMPR1B / KINOMEscan: BMX / KINOMEscan: BRK / KINOMEscan: BRSK1 / KINOMEscan: BRSK2 / KINOMEscan: CAMK1 / KINOMEscan: CAMK1D / KINOMEscan: CAMK1G / KINOMEscan: CAMK2A / KINOMEscan: CAMK2B / KINOMEscan: AAK1 / KINOMEscan: CAMK2D / KINOMEscan: CAMK2G / KINOMEscan: ABL1(F317I)-nonphosphorylated / KINOMEscan: ABL1(F317I)-phosphorylated / KINOMEscan: ABL1(F317L)-nonphosphorylated: unit: % Ctrl; conditions: Compound Concentration 10 µM
T1 construct: purchased KINOMEscan
T1 sequence (Q8IWQ3 1-736): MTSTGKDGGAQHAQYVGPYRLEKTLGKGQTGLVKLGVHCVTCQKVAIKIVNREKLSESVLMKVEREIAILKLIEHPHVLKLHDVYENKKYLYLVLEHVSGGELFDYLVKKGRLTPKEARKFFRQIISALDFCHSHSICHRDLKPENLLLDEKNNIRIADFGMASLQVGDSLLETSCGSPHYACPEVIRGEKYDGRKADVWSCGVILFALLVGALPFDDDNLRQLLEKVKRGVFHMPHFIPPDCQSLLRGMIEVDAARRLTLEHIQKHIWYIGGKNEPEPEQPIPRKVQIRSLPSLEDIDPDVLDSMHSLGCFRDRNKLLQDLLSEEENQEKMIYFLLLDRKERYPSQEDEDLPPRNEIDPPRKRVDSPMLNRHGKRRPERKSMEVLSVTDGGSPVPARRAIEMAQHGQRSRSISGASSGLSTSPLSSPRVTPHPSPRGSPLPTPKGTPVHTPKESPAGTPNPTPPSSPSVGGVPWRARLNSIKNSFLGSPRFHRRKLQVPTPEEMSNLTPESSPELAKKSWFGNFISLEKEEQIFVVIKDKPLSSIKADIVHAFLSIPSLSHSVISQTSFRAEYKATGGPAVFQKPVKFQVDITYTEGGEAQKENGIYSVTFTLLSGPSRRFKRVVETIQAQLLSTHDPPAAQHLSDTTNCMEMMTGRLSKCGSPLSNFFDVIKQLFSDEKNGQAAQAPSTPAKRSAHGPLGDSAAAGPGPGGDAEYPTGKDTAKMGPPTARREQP
Excerpt: (§1) We assessed the selectivity of members of this scaffold using the KINOMEscan methodology across a near comprehensive panel of 442 kinases [[18,27]].

panel of 442 kinases [2] = target: T2, panel of 442 kinases (Homo sapiens, UniProt P54760); type: binding; design: KINOMEscan: ABL1(F317L)-phosphorylated / KINOMEscan: ABL1(H396P)-nonphosphorylated / KINOMEscan: ABL1(H396P)-phosphorylated / KINOMEscan: ABL1(M351T)-phosphorylated / KINOMEscan: ABL1(T315I)-phosphorylated / KINOMEscan: ABL1-nonphosphorylated / KINOMEscan: ABL1-phosphorylated / KINOMEscan: ACVR2A / KINOMEscan: ACVR2B / KINOMEscan: ADCK3 / KINOMEscan: ADCK4 / KINOMEscan: AKT1 / KINOMEscan: AKT3 / KINOMEscan: ALK / KINOMEscan: ARK5 / KINOMEscan: AURKA / KINOMEscan: AURKC / KINOMEscan: BIKE / KINOMEscan: BMPR1A / KINOMEscan: BMPR1B / KINOMEscan: BMX / KINOMEscan: BRK / KINOMEscan: BRSK1 / KINOMEscan: BRSK2 / KINOMEscan: CAMK1 / KINOMEscan: CAMK1D / KINOMEscan: CAMK1G / KINOMEscan: CAMK2A / KINOMEscan: CAMK2B / KINOMEscan: AAK1 / KINOMEscan: CAMK2D / KINOMEscan: CAMK2G / KINOMEscan: ABL1(F317I)-nonphosphorylated / KINOMEscan: ABL1(F317I)-phosphorylated / KINOMEscan: ABL1(F317L)-nonphosphorylated: unit: % Ctrl; conditions: Compound Concentration 10 µM
T2 construct: purchased KINOMEscan
T2 sequence (P54760 16-987): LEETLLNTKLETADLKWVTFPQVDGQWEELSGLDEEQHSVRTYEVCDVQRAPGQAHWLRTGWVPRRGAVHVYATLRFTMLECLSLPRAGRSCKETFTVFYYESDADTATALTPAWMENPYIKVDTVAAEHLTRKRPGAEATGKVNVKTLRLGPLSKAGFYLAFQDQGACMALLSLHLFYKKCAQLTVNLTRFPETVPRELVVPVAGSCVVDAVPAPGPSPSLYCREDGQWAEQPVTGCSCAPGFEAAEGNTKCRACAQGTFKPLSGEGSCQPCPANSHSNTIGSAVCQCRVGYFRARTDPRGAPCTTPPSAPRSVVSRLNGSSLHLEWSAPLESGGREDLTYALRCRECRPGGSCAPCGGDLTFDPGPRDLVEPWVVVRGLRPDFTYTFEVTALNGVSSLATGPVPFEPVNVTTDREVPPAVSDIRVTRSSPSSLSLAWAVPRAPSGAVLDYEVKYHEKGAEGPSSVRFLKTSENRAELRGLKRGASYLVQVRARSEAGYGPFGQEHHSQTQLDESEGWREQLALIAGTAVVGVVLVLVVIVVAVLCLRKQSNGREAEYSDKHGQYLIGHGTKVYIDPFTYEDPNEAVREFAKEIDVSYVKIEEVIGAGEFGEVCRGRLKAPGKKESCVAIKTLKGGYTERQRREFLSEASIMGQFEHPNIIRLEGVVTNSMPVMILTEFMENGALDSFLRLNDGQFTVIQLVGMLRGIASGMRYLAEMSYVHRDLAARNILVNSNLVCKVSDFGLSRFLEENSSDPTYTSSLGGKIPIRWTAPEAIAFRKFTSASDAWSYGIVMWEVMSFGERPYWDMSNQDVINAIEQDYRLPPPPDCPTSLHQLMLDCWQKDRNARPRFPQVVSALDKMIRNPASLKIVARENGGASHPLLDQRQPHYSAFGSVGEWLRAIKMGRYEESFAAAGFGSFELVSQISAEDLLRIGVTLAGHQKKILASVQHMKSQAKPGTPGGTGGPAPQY
Excerpt: as §1

| SMILES | KINOMEscan: BRSK2 (panel of 442 kinases [1]) | KINOMEscan: EPHB4 (panel of 442 kinases [2]) |
| --- | --- | --- |
| COc1cc(C(=O)N2CCC(N3CCN(C)CC3)CC2)ccc1Nc1ncc2c(n1)N1CCc3cccc(c31)C(=O)N2C [Compound 24] | 81 |  |
| CCOc1cc(C(=O)N2CCC(N3CCN(C)CC3)CC2)ccc1Nc1ncc2c(n1)N(C1CCCC1)c1ccccc1C(=O)N2C [Compound 26] | 92 | 100 |
| COc1cc(C(=O)N2CCC(N3CCN(C)CC3)CC2)ccc1Nc1ncc2c(n1)N(C1CCCC1)c1ccccc1C(=O)N2C [Compound 25, 11-cyclopentyl-2-((2-methoxy-4-(4-(4-methylpiperazin-1-yl)piperidine-1-carbonyl)phenyl)amino)-5-methyl-5H-benzo[e]pyrimido[5,4-b][1,4]diazepin-6(11H)-one] | 80 | 100 |
| COc1cc(C(=O)N2CCC(N3CCN(C)CC3)CC2)ccc1Nc1ncc2c(n1)N(C)c1ccccc1C(=O)N2C [15 (LRRK2-IN-1)] | 64 | 100 |
